Reference: ChEMBL document CHEMBL3797044, “Computer-aided design, synthesis, and biological evaluation of new indole-2-carboxamide derivatives as PI3Kα/EGFR inhibitors” (Bioorg Med Chem Lett, 2016)
Activity calls are given as the source filed them. The calls are words filed in the database; no cut-off is given here.

Experiments:
K562 = assay: Cytotoxicity against human K562 cells assessed as growth inhibition after 24 hrs by MTT assay; format: functional, cell-based; conditions: K562, 24 h
HCT-116 = assay: Induction of apoptosis in human HCT116 assessed as increase in caspase-3 activity at 120 uM incubated for 48 hrs followed by DEVD-pNA substrate addition by caspase-3 colorimetric assay; format: functional
MDA-MB-231 = assay: Induction of apoptosis in human MDA231 assessed as increase in caspase-3 activity at 120 uM incubated for 48 hrs followed by DEVD-pNA substrate addition by caspase-3 colorimetric assay; format: functional

Structure (SMILES): CC(=O)c1ccc(NC(=O)c2cc3ccccc3[nH]2)cc1
- IC50 (K562): > 100 µM

Structure (SMILES): O=C(c1ccccc1)c1cccc(NC(=O)c2cc3ccccc3[nH]2)c1
- IC50 (K562): > 100 µM

Structure (SMILES): CC(O)c1cccc(NC(=O)c2cc3ccccc3[nH]2)c1 (stereo not given)
- IC50 (K562): > 100 µM

Structure (SMILES): O=C(Nc1cccc(C(O)c2ccccc2)c1)c1cc2ccccc2[nH]1 (stereo not given)
- Activity (HCT-116): Active
- Activity (MDA-MB-231): Active
- IC50 (K562): > 100 µM

Structure (SMILES): O=C(c1ccccc1)c1ccc(NC(=O)c2cc3ccccc3[nH]2)cc1
- IC50 (K562): > 100 µM

Structure (SMILES): CC(=O)c1cccc(NC(=O)c2cc3ccccc3[nH]2)c1
- IC50 (K562): > 100 µM

Structure (SMILES): O=C(Nc1ccc(C(O)c2ccccc2)cc1)c1cc2ccccc2[nH]1 (stereo not given)
- IC50 (K562): > 100 µM

Structure (SMILES): CC(O)c1ccc(NC(=O)c2cc3ccccc3[nH]2)cc1 (stereo not given)
- IC50 (K562): > 100 µM
